Among the data in ChEMBL document CHEMBL1133325, “Synthesis and biological activity of fluoro-substituted pyrrolo[2,3-d]pyrimidines: the development of potential positron emission tomography imaging agents for the corticotropin-releasing hormone type 1 receptor” (Bioorg Med Chem Lett, 2000) are Ki values, retold here.

Bounds are passed on as bounds.

The test deals with T1, Corticotropin-releasing factor receptor 1 (Rattus norvegicus, UniProt P35353).
T1 sequence (P35353 whole entry): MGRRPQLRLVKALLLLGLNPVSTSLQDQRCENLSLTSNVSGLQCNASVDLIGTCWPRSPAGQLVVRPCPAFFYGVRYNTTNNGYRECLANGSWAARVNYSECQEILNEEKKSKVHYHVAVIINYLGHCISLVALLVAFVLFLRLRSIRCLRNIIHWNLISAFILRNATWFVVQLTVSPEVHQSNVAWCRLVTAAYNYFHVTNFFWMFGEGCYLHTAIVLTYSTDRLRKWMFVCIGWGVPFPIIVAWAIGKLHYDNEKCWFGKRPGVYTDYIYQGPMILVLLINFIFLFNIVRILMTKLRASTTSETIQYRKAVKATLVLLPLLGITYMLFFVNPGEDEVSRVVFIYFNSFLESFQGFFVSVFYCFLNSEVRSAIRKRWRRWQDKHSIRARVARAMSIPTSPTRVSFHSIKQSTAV
As to the kind of experiment: Compound was tested in vitro for its ability to displace [125 I]Tyr-sauvagine from corticotropin-releasing hormone type 1 receptor in rat cerebellum. It counts as tissue-based.
In the case of `Cc1cc(C)c(-n2c(C)c(C)c3c(N4CCN(CCF)CC4)nc(C)nc32)c(C)c1`, the Ki (in general, the equilibrium dissociation constant of an inhibitor or competing ligand from its target) is more than 1000 nM.
For `CCCCN(CCCCF)c1nc(C)nc2c1c(C)c(C)n2-c1c(C)cc(C)cc1C` the value was 10 nM; for `Cc1cc(C)c(-n2c(C)c(C)c3c(N(CCCF)CC4CC4)nc(C)nc32)c(C)c1`, 30 nM; for `CCCN(CC1CC1)c1nc(C)nc2c1c(C)c(C)n2-c1c(C)cc(C)cc1C`, 2.3 nM.
For `CCN(CCCCF)c1nc(C)nc2c1c(C)c(C)n2-c1c(C)cc(C)cc1C` the value was 3.5 nM; for `CCCN(CCCCF)c1nc(C)nc2c1c(C)c(C)n2-c1c(C)cc(C)cc1C`, 0.91 nM.
For `CCCCN(CC)c1nc(C)nc2c1c(C)c(C)n2-c1c(C)cc(C)cc1C` [ANTALARMIN] the value was 2.5 nM.
